Several values for one entry are separate records, joined by “and”; a condition that tells them apart may be missing. Identical values can stand only once.
Legend:
[1] = target: T1, recombinant WT VCP (Mus musculus, UniProt Q01853); assay: Kinase-Glo ATPase assay, recombinant WT VCP; type: biochemical; details: for ATP consumed: WT VCP no UN
T1 construct: in the full-length recombinant VCP; His (N); made in house; host or cells: Escherichia coli BL21-CodonPlus (DE3)-RIL
Protocol: (§1) Experiments with varied activator concentration and screening were measured using the Kinase-Glo Luminescent Kinase Assay (Promega). Reactions were incubated at 25°C for 1 hour then reduced to 4°C in a thermocycler consisting of 50 nM of recombinant VCP with or without 50 nM UFD1/NPLOC4 in 50 uL ATPase buffer (25 mM HEPES, pH 7.5, 100 mM NaCl, 10 mM MgCl2) at 2% DMSO with 62.5 μM ATP and a range of activator concentrations (Gibco, Sigma-Aldrich). Equal volumes of reaction and Kinase-Glo reagent were incubated for 20 minutes at room temperature in a 96 well white flat bottom plate (Corning). Luminescence was measured in a microplate reader (Spark 20M, Tecan).
(§2) Experiments with varied compound concentration were fit to a 3-parameter dose curve with asymmetric profile likelihood 95% confidence intervals in GraphPad Prism 9 (GraphPad). Experiments with varied ATP concentration were fit to a Michaelis-Menten model with asymmetric profile likelihood 95% confidence intervals. Significance was determined for experiments with fixed compound or fixed ATP concentration using a linear mixed-effects model.

[2] = target: T2, WT VCP + Ufd1/Nploc4 (Mus musculus, UniProt Q01853); assay: Kinase-Glo ATPase assay, WT VCP with UFD1/NPLOC4 (UN); type: biochemical; details: for ATP consumed: WT VCP with UN
T2 construct: in the full-length recombinant VCP; His (N); made in house; host or cells: E. coli (VCP: BL21-CodonPlus (DE3)-RIL; UFD1 and NPLOC4: E. coli (DE3), purified by the MD Anderson core)
T2 sequence (Q01853 whole entry): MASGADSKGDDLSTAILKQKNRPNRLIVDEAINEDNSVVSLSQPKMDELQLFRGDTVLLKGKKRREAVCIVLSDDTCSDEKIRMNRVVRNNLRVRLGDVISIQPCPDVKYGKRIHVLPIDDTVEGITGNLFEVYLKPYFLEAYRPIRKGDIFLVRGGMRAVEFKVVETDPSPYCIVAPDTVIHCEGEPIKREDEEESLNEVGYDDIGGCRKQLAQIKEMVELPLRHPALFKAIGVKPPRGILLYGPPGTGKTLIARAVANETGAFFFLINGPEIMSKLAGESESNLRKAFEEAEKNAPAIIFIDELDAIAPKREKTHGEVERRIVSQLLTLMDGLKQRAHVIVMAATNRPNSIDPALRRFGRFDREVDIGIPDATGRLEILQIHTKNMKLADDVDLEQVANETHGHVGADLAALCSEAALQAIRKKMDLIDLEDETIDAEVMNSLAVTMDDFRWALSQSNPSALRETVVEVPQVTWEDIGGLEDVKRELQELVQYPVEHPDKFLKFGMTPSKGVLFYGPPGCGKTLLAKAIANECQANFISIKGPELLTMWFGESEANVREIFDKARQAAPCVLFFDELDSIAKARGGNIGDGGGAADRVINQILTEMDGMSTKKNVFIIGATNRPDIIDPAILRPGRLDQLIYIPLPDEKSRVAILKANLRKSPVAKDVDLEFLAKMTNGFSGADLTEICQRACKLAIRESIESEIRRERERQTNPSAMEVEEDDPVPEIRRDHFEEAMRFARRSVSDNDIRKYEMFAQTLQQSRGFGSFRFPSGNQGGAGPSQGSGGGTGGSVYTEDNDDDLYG
T2 sequence (Q92890 whole entry partner): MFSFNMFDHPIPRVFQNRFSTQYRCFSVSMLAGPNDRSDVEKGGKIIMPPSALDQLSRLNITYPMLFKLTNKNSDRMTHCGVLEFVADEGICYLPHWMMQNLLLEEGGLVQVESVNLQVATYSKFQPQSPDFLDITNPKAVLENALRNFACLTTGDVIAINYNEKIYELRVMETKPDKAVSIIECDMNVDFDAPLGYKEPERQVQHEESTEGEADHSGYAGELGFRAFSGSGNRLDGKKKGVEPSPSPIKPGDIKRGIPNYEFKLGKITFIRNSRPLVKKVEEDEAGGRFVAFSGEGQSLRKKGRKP
T2 sequence (Q8TAT6 whole entry partner): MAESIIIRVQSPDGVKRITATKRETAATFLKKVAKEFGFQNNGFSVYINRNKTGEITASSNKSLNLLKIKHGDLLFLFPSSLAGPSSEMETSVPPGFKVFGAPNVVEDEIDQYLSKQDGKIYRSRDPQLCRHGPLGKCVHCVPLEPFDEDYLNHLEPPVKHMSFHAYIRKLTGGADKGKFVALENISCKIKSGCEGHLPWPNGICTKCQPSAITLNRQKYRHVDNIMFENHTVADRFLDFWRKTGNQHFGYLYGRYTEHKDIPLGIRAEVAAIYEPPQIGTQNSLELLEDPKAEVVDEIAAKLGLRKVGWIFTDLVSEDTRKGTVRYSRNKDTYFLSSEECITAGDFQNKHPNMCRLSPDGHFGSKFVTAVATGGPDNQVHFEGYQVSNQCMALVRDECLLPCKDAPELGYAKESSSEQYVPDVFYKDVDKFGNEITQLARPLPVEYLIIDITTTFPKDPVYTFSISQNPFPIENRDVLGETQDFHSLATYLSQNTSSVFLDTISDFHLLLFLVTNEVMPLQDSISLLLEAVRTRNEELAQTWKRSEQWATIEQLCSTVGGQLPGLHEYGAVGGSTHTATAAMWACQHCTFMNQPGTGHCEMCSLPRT
Protocol: as §1, §2

[3] = target: T1, recombinant WT VCP; assay: MESG-PNP (EnzCheck) phosphate release ATPase assay, WT VCP; type: biochemical; details: for ATPase activity v0/ET: 25 μM compound, replicate experiments
Protocol: (§3) All other experiments were performed using the EnzCheck phosphatase assay kit (Molecular Probes). ATPase activity was measured in a 96-well flat bottom plate (Thermo Fisher Scientific). 50 nM VCP was incubated in 100 μL ATPase buffer with 2% DMSO with 25 μM compound and various ATP concentrations. The absorbance at 360 ± 5 nm was measured for more than 15 minutes at 25°C. Phosphate release was quantified based on a phosphate standard curve performed on the same plate. Initial enzyme velocity was determined by fitting the linear portion of the data to a linear regression model.
as §2

[4] = test system: 26S proteasome; assay: 26S proteasome activity, Suc-LLVY-AMC fluorescence; type: biochemical, human; details: 25 μM compound, versus 1% DMSO
Protocol: 26S proteasome and substrate suc-LLVY-AMC were purchased (LifeSensors, Inc.). Fluorescence was measured in a microplate reader using a 96-well optical bottom black plate (Thermo Fisher Scientific). […] 26S proteasome was incubated in 100 μL proteasome buffer (20 mM HEPES, pH 7.5, 0.5 mM EDTA, 0.05% Triton-X) with 100 μM suc-LLVY-AMC, 1 mM ATP, and 25 μM compound or 1% DMSO. Fluorescence was measured at excitation 380 ± 10nm and emission 460 ± 10nm for more than 15 minutes at 37°C. Initial velocity was determined by fitting the linear portion of the data to a linear regression model. Significance was determined for using a linear mixed-effects model.

[5] = test system: WT HeLa cells expressing GFP-TDP-4FL; assay: Flow cytometry of GFP-TDP-4FL integrated fluorescence, WT HeLa; type: cell-based; details: for Integrated Fluorescence WT (Normalized to CHX): 4 μM MG132 17 h
Protocol: Drug treatments were performed on neurons 7 days after lentiviral transduction and 14 days after neuronal induction. HeLa cells were collected using trypsin and pelleted at 1000g for 3 minutes. Cell pellets were resuspended in colorless DMEM (Invitrogen) supplemented with 2% FBS and filtered through a BD tube with cell strainer (BD Biosciences) for flow cytometry analysis on LSR II (BD Biosciences). Data analysis was performed on FlowJo v10 software. Integrated fluorescence intensity was determined by multiplying percent positive GFP and GFP median fluorescence values.

[6] = test system: luciferase; assay: Luciferase counter assay: Kinase-Glo with 62.5 μM ATP without recombinant VCP; type: biochemical; details: for measured ATP consumed (nmol) without VCP: replicate values
Protocol: as §1
(A-D) Measured ATP as determined by a Kinase-Glo assay of 62.5μM ATP in the presence of increasing concentrations of compound without recombinant VCP present. (for all panels: n=3 with 4 technical replicates per experiment, points are expressed as beta ± SE, linear mixed effects model, P>0.05 for each […]
(1 picture or pasted object on this page, not shown here)

[7] = target: T3, A232E VCP (Mus musculus, UniProt Q01853, A232E); assay: MESG-PNP ATPase assay, recombinant A232E VCP; type: biochemical; details: VCP Mutation A232E; replicate values
T3 construct: in the full-length recombinant VCP; His (N); made in house; host or cells: Escherichia coli BL21-CodonPlus (DE3)-RIL
T3 sequence (Q01853 whole entry A232E): as the sequence (Q01853 whole entry) above, with A232E counted along it
Protocol: as §3
(§4) Figure S8. VCP activators variable effect on ATPase activity of MSP associated mutations in recombinant VCP. ATPase activity of 50 nM recombinant VCP protein was measured using an MESG-PNP assay upon treatment with 25 μM compound versus 2% DMSO control at 1mM ATP for WT (also shown in Fig. 5c), A232E, R155H, and R159H (n=3 with 3 technical replicated per experiment; points are expressed as beta ± SE, linear effects model: *P<0.05,**P<0.01; ***P<0.001; ****P<0.0001).

[8] = target: T4, R155H VCP (Mus musculus, UniProt Q01853, R155H); assay: MESG-PNP ATPase assay, recombinant R155H VCP; type: biochemical; details: VCP Mutation R155H; replicate values
T4 construct: in the full-length recombinant VCP; His (N); made in house; host or cells: Escherichia coli BL21-CodonPlus (DE3)-RIL
T4 sequence (Q01853 whole entry R155H): as the sequence (Q01853 whole entry) above, with R155H counted along it
Protocol: as §3, §4

[9] = target: T5, R159H VCP (Mus musculus, UniProt Q01853, R159H); assay: MESG-PNP ATPase assay, recombinant R159H VCP; type: biochemical; details: VCP Mutation R159H; replicate values
T5 construct: in the full-length recombinant VCP; His (N); made in house; host or cells: Escherichia coli BL21-CodonPlus (DE3)-RIL
T5 sequence (Q01853 whole entry R159H): as the sequence (Q01853 whole entry) above, with R159H counted along it
Protocol: as §3, §4

T1 sequence (Q01853 whole entry): as the sequence (Q01853 whole entry) above

O=C(CSc1nc2ccccc2c(=O)n1NC(=O)c1ccccc1)c1ccc(Cl)cc1 [UP12]
EC50 ([1]; EC50 (μM) (95% CI), WT VCP without UN, 50 nM VCP, 62.5 μM ATP, 2% DMSO): 1.57 µM | ATP consumed ([1]; 0.20 μM compound): 0.972 nmol and 0.921 nmol and 1.113 nmol | ATP consumed ([1]; 0.39 μM compound): 1.046 nmol and 0.999 nmol and 1.126 nmol | ATP consumed ([1]; 0.78 μM compound): 1.028 nmol and 1.027 nmol and 1.185 nmol | ATP consumed ([1]; 1.56 μM compound): 1.050 nmol and 1.001 nmol and 1.186 nmol | ATP consumed ([1]; 3.13 μM compound): 0.987 nmol and 1.173 nmol and 1.366 nmol | ATP consumed ([1]; 6.25 μM compound): 1.164 nmol and 1.158 nmol and 1.362 nmol | ATP consumed ([1]; 12.5 μM compound): 1.242 nmol and 1.397 nmol and 1.210 nmol | ATP consumed ([1]; 25 μM compound): 1.202 nmol and 1.262 nmol and 1.324 nmol | recombinant WT VCP ATPase activity ([1]; in vitro validation of 106 screen hits): significantly increased | increase of VCP activity ([1]; maximum, WT VCP without UN): 39% | change in EC50 with UN compared to without UN [2]: non-significant decreases | change in maximum percent activity with UN compared to without UN [2]: significantly decreased | EC50 ([2]; WT VCP + Ufd1/Nploc4, 1:1 molar ratio): 648 nM | ATP consumed ([2]; 0.20 μM compound): 1.300 nmol and 1.366 nmol and 1.077 nmol | ATP consumed ([2]; 0.39 μM compound): 1.441 nmol and 1.399 nmol and 1.156 nmol | ATP consumed ([2]; 0.78 μM compound): 1.422 nmol and 1.447 nmol and 1.306 nmol | ATP consumed ([2]; 1.56 μM compound): 1.523 nmol and 1.537 nmol and 1.366 nmol | ATP consumed ([2]; 3.13 μM compound): 1.496 nmol and 1.548 nmol and 1.334 nmol | ATP consumed ([2]; 6.25 μM compound): 1.632 nmol and 1.536 nmol and 1.400 nmol | ATP consumed ([2]; 12.5 μM compound): 1.663 nmol and 1.623 nmol and 1.427 nmol | ATP consumed ([2]; 25 μM compound): 1.544 nmol and 1.491 nmol and 1.364 nmol | kcat (nmol Pi / nmol VCP / s) (95% CI) ([3]; 25 μM activator): 0.309 (0.269, 0.356) nmol Pi / nmol VCP / s | increase in kcat ([3]; 25 μM activator, versus DMSO): about 25% | ATPase activity v0/ET ([3]; [ATP] 62.5 μM): 0.164 nmol Pi / nmol VCP / s and 0.127 nmol Pi / nmol VCP / s and 0.154 nmol Pi / nmol VCP / s | ATPase activity v0/ET ([3]; [ATP] 125 μM): 0.234 nmol Pi / nmol VCP / s and 0.182 nmol Pi / nmol VCP / s and 0.208 nmol Pi / nmol VCP / s | ATPase activity v0/ET ([3]; [ATP] 250 μM): 0.282 nmol Pi / nmol VCP / s and 0.230 nmol Pi / nmol VCP / s and 0.291 nmol Pi / nmol VCP / s | ATPase activity v0/ET ([3]; [ATP] 500 μM): 0.289 nmol Pi / nmol VCP / s and 0.232 nmol Pi / nmol VCP / s and 0.265 nmol Pi / nmol VCP / s | ATPase activity v0/ET ([3]; [ATP] 1000 μM): 0.320 nmol Pi / nmol VCP / s and 0.260 nmol Pi / nmol VCP / s and 0.293 nmol Pi / nmol VCP / s | % activity of 26S proteasome [4]: 94.3% and 79.8% and 83.9% and 107.1% and 92.8% and 109.7% | Integrated Fluorescence WT (Normalized to CHX) ([5]; then CHX with 5 μM compound 4 h): 0.972 and 1.128 and 1.069 and 1.136 and 1.032 and 0.941 | Integrated Fluorescence WT (Normalized to CHX) ([5]; then CHX with 20 μM compound 4 h): 0.894 and 0.971 and 1.353 and 0.977 and 0.848 and 0.689 | clearance of GFP-TDP-4FL aggregates (integrated fluorescence) ([5]; MG132, then CHX with 5 or 20 μM activator): did not have a significant effect | luciferase activity (measured ATP without VCP) ([6]; 62.5 μM ATP, increasing concentrations of compound): did not inhibit luciferase activity | measured ATP consumed (nmol) without VCP ([6]; compound 6.25 μM): 3.153 nmol and 3.247 nmol and 3.452 nmol and 3.556 nmol and 3.276 nmol and 3.463 nmol and 3.531 nmol and 3.381 nmol and 3.251 nmol and 3.386 nmol and 3.279 nmol and 3.064 nmol | measured ATP consumed (nmol) without VCP ([6]; compound 12.5 μM): 3.163 nmol and 3.366 nmol and 3.532 nmol and 3.606 nmol and 3.351 nmol and 3.662 nmol and 3.334 nmol and 3.435 nmol and 3.323 nmol and 3.733 nmol and 3.427 nmol and 3.076 nmol | measured ATP consumed (nmol) without VCP ([6]; compound 25 μM): 3.243 nmol and 3.452 nmol and 3.683 nmol and 3.709 nmol and 3.371 nmol and 3.627 nmol and 3.582 nmol and 3.248 nmol and 3.318 nmol and 3.356 nmol and 3.238 nmol and 3.225 nmol | measured ATP consumed (nmol) without VCP ([6]; compound 50 μM): 3.199 nmol and 3.663 nmol and 3.673 nmol and 3.419 nmol and 3.053 nmol and 3.725 nmol and 3.509 nmol and 3.086 nmol and 3.588 nmol and 3.442 nmol and 3.634 nmol and 3.113 nmol | measured ATP consumed (nmol) without VCP ([6]; compound 100 μM): 3.128 nmol and 3.612 nmol and 3.580 nmol and 3.474 nmol and 3.673 nmol and 3.565 nmol and 3.583 nmol and 2.931 nmol and 3.556 nmol and 3.479 nmol and 3.581 nmol and 3.246 nmol | ATPase activity, nmol Pi / nmol VCP / s [7]: 1.130 nmol Pi / nmol VCP / s and 0.838 nmol Pi / nmol VCP / s and 0.963 nmol Pi / nmol VCP / s | ATPase activity, nmol Pi / nmol VCP / s [8]: 0.592 nmol Pi / nmol VCP / s and 0.458 nmol Pi / nmol VCP / s and 0.468 nmol Pi / nmol VCP / s | ATPase activity, nmol Pi / nmol VCP / s [9]: 0.579 nmol Pi / nmol VCP / s and 0.685 nmol Pi / nmol VCP / s and 0.536 nmol Pi / nmol VCP / s

From PMC11257039, “VCP activator reverses nuclear proteostasis defects and enhances TDP-43 aggregate clearance in multisystem proteinopathy models” (The Journal of Clinical Investigation, 2024)
